The text below walks through data of patent US10035760B2, “Inhibitors of human immunodeficiency virus replication” (priority 2013, dated 2018).

Read-outs that look alike come from different tables or passages of the source. Some results are limits rather than exact numbers.

The test system of this test is recombinant NL4-3 virus (Renilla luciferase) in MT-2 cells. Put plainly: HIV cell culture assay (antiviral activity, luciferase readout in infected MT-2 cells). To be noted: Renilla. It is filed as cell-based. The procedure, abridged: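 Nef-deleted NL4-3 carrying Renilla luciferase, produced by 293T transfection, used to infect MT-2 cells for 4–5 days with serial compound dilutions. Live-cell luciferase signal read as infection marker; EC50 from exponential median-effect equation.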

Setting [1] is: NL43, read-out: Activity, antiviral activity class, recombinant NL4-3 Renilla luciferase virus in MT-2 cells.
[2] abbreviates: NL43, recombinant NL4-3 Renilla luciferase virus in MT-2 cells.

Take `COc1ccccc1N(C)C(=O)[C@H](Cc1ccccc1)NC(=O)NS(=O)(=O)c1ccccc1` [Example 95, (S)—N-(2-methoxyphenyl)-N-methyl-3-phenyl-2-(3 (phenylsulfonyl)ureido)-propanamide]: the EC50 under setting [1] was 1000 to 10000 nM.

For the molecule `CCN(CC)CCN(C)C(=O)[C@H](Cc1ccccc1)NC(=O)NS(=O)(=O)c1ccccc1` [Example 96, (S)—N-(2-(diethylamino)ethyl)-N-methyl-3-phenyl-2-(3-(phenylsulfonyl)ureido)propanamide], under setting [2], the EC50 was above 100000 nM.

On to `Cc1nc(-c2ccc(CN(C)C(=O)[C@H](Cc3ccccc3)NC(=O)NS(=O)(=O)c3ccccc3)cc2)no1` [Example 97, (S)—N-methyl-N-(4-(5-methyl-1,2,4-oxadiazol-3-yl)benzyl)-3-phenyl-2-(3-(phenylsulfonyl)ureido)propanamide], for which the EC50 under setting [1] was in the range of 1000 to 10000 nM.

On to `CN(C(=O)[C@H](Cc1ccccc1)NC(=O)NS(=O)(=O)c1c(F)cccc1F)c1ccc2c(c1)OCO2` [Example 98, (S)—N-(benzo[d][1,3]dioxol-5-yl)-2-(3-((2,6-difluorophenyl)sulfonyl)ureido)-N-methyl-3-phenylpropanamide], for which the EC50 by setting is: under setting [1], below 100 nM; under setting [2], 90 nM.

For `CN(C(=O)[C@H](Cc1ccccc1)NC(=O)NS(=O)(=O)c1cc(F)ccc1F)c1ccc2c(c1)OCO2` [Example 99, (S)—N-(benzo[d][1,3]dioxol-5-yl)-2-(3-((2,5-difluorophenyl)sulfonyl)ureido)-N-methyl-3-phenylpropanamide], the EC50 is, setting by setting: under setting [1], 100 to 1000 nM; under setting [2], 150 nM.

On to `CN(C(=O)[C@H](Cc1ccccc1)NC(=O)NS(=O)(=O)c1c(Cl)cccc1Cl)c1ccc2c(c1)OCO2` [Example 100, (S)—N-(benzo[d][1,3]dioxol-5-yl)-2-(3-((2,6-dichlorophenyl)sulfonyl)ureido)-N-methyl-3-phenylpropanamide], for which the EC50 under setting [1] was below 100 nM.

In the case of `CN(C(=O)[C@H](Cc1ccccc1)NC(=O)NS(=O)(=O)Cc1ccccc1Cl)c1ccc2c(c1)OCO2` [Example 101, (S)—N-(benzo[d][1,3]dioxol-5-yl)-2-(3-((2-chlorobenzyl)sulfonyl)ureido)-N-methyl-3-phenylpropanamide], the EC50 under setting [1] fell in the range of 100 to 1000 nM.

For the molecule `CN(C(=O)[C@H](Cc1ccccc1)NC(=O)NS(=O)(=O)Cc1ccc(Cl)c(Cl)c1)c1ccc2c(c1)OCO2` [Example 102, (S)—N-(benzo[d][1,3]dioxol-5-yl)-2-(3-((3,4-dichlorobenzyl)sulfonyl)ureido)-N-methyl-3-phenylpropanamide], the EC50 under setting [1] lay in the range of 100 to 1000 nM.

With `CN(C(=O)[C@H](Cc1ccccc1)NC(=O)NS(=O)(=O)Cc1cccc(Cl)c1)c1ccc2c(c1)OCO2` [Example 103, (S)—N-(benzo[d][1,3]dioxol-5-yl)-2-(3-((3-chlorobenzyl)sulfonyl)ureido)-N-methyl-3-phenylpropanamide], the EC50 under setting [1] was 100 to 1000 nM.

In the case of `Cc1ccccc1CS(=O)(=O)NC(=O)N[C@@H](Cc1ccccc1)C(=O)N(C)c1ccc2c(c1)OCO2` [Example 104, (S)—N-(benzo[d][1,3]dioxol-5-yl)-N-methyl-2-(3-((2-methylbenzyl)sulfonyl)ureido)-3-phenylpropanamide], the EC50 by setting is: under setting [1], 100 to 1000 nM; under setting [2], 620 nM.

Regarding `CN(C(=O)[C@H](Cc1ccccc1)NC(=O)NS(=O)(=O)Cc1ccc(C(F)(F)F)cc1)c1ccc2c(c1)OCO2` [Example 105, (S)—N-(benzo[d][1,3]dioxol-5-yl)-N-methyl-3-phenyl-2-(3-((4-(trifluoromethyl)benzyl)sulfonyl)ureido)propanamide], the EC50 under setting [1] fell in the range of 100 to 1000 nM.

Consider `CC(C)C1CC1S(=O)(=O)NC(=O)N[C@@H](Cc1ccccc1)C(=O)N(C)c1ccc2c(c1)OCO2` (stereo partly drawn) [Example 106, (2S)—N-(benzo[d][1,3]dioxol-5-yl)-2-(3-((2-isopropylcyclopropyl)sulfonyl)ureido)-N-methyl-3-phenylpropanamide], for which the EC50 under setting [1] lay in the range of 100 to 1000 nM.

Take `CN(C(=O)[C@H](Cc1ccccc1)NC(=O)NS(=O)(=O)C1(Cc2ccccc2)CC1)c1ccc2c(c1)OCO2` [Example 107, (S)—N-(benzo[d][1,3]dioxol-5-yl)-2-(3-((1-benzylcyclopropyl)sulfonyl)ureido)-N-methyl-3-phenylpropanamide]: the EC50 under setting [1] fell in the range of 1000 to 10000 nM.

As to `COc1ccccc1S(=O)(=O)NC(=O)N[C@@H](Cc1ccccc1)C(=O)N(C)c1ccc2c(c1)OCO2` [Example 108, (S)—N-(benzo[d][1,3]dioxol-5-yl)-2-(3-((2-methoxyphenyl)sulfonyl)ureido)-N-methyl-3-phenylpropanamide], under setting [1], the EC50 lay within 100 to 1000 nM.

For `CN(C(=O)[C@H](Cc1ccccc1)NC(=O)NS(=O)(=O)Cc1ccc(Cl)cc1)c1ccc2c(c1)OCO2` [Example 109, (S)—N-(benzo[d][1,3]dioxol-5-yl)-2-(3-((4-chlorobenzyl)sulfonyl)ureido)-N-methyl-3-phenylpropanamide], under setting [1], the EC50 lay in the range of 100 to 1000 nM.

`CN(C(=O)[C@H](Cc1ccccc1)NC(=O)NS(=O)(=O)Cc1ccc(F)cc1)c1ccc2c(c1)OCO2` [Example 110, (S)—N-(benzo[d][1,3]dioxol-5-yl)-2-(3-((4-fluorobenzyl)sulfonyl)ureido)-N-methyl-3-phenylpropanamide]: the EC50 reads like this: under setting [1], 100 to 1000 nM; under setting [2], 160 nM.

For `CN(C(=O)[C@H](Cc1ccccc1)NC(=O)NS(=O)(=O)C1CCCCC1)c1ccc2c(c1)OCO2` [Example 111, (S)—N-(benzo[d][1,3]dioxol-5-yl)-2-(3-(cyclohexylsulfonyl)ureido)-N-methyl-3-phenylpropanamide], under setting [1], the EC50 was in the range of 100 to 1000 nM.

For `CCN(C(=O)[C@H](Cc1ccccc1)NC(=O)NS(=O)(=O)c1cccc(Br)c1)c1ccc(OC)cc1` [Example 112, (S)-2-(3-((3-bromophenyl)sulfonyl)ureido)-N-ethyl-N-(4-methoxyphenyl)-3-phenylpropanamide], the EC50 under setting [1] was below 100 nM.

In the case of `CCN(C(=O)[C@H](Cc1ccccc1)NC(=O)NS(=O)(=O)c1ccccc1[N+](=O)[O-])c1ccc(OC)cc1` [Example 113, (S)—N-ethyl-N-(4-methoxyphenyl)-2-(3-((2-nitrophenyl)sulfonyl)ureido)-3-phenylpropanamide], the EC50 under setting [1] is below 100 nM.

`CCN(C(=O)[C@H](Cc1ccccc1)NC(=O)NS(=O)(=O)c1ccccc1C(=O)OC)c1ccc(OC)cc1` [Example 114, (S)-methyl 2-(N-((1-(ethyl(4-methoxyphenyl)amino)-1-oxo-3-phenylpropan-2-yl)carbamoyl)sulfamoyl)benzoate]: the EC50 is 1000 to 10000 nM under setting [1] and 1060 nM under setting [2].

In the case of `CCN(C(=O)[C@H](Cc1ccccc1)NC(=O)NS(=O)(=O)c1cccc(Br)c1C)c1ccc(OC)cc1` [Example 115, (S)-2-(3-((3-bromo-2-methylphenyl)sulfonyl)ureido)-N-ethyl-N-(4-methoxyphenyl)-3-phenylpropanamide], the EC50 under setting [1] was below 100 nM.

As for `CCN(C(=O)[C@H](Cc1ccccc1)NC(=O)NS(=O)(=O)c1cccc2ccccc12)c1ccc(OC)cc1` [Example 116, (S)—N-ethyl-N-(4-methoxyphenyl)-2-(3-(naphthalen-1-ylsulfonyl)ureido)-3-phenylpropanamide], the EC50 under setting [1] was below 100 nM.

With `CCN(C(=O)[C@H](Cc1ccccc1)NC(=O)NS(=O)(=O)c1ccccc1F)c1ccc(OC)cc1` [Example 117, (S)—N-ethyl-2-(3-((2-fluorophenyl)sulfonyl)ureido)-N-(4-methoxyphenyl)-3-phenylpropanamide], under setting [1], the EC50 was below 100 nM.

Turning to `CCN(C(=O)[C@H](Cc1ccccc1)NC(=O)NS(=O)(=O)c1c(F)cccc1F)c1ccc(OC)cc1` [Example 118, (S)-2-(3-((2,6-difluorophenyl)sulfonyl)ureido)-N-ethyl-N-(4-methoxyphenyl)-3-phenylpropanamide], the EC50 reads like this: under setting [1], below 100 nM; under setting [2], 40 nM.

In the case of `CCN(C(=O)[C@H](Cc1ccccc1)NC(=O)NS(=O)(=O)c1cccc(Cl)c1Cl)c1ccc(OC)cc1` [Example 119, (S)-2-(3-((2,3-dichlorophenyl)sulfonyl)ureido)-N-ethyl-N-(4-methoxyphenyl)-3-phenylpropanamide], the EC50 under setting [1] was below 100 nM.

As for `CCN(C(=O)[C@H](Cc1ccccc1)NC(=O)NS(=O)(=O)c1cc(Br)ccc1C)c1ccc(OC)cc1` [Example 120, (S)-2-(3-((5-bromo-2-methylphenyl)sulfonyl)ureido)-N-ethyl-N-(4-methoxyphenyl)-3-phenylpropanamide], the EC50 under setting [1] is 100 to 1000 nM.

Turning to `CCN(C(=O)[C@H](Cc1ccccc1)NC(=O)NS(=O)(=O)c1cccc(-c2ccoc2)c1)c1ccc(OC)cc1` [Example 121, (S)—N-ethyl-2-(3-((3-(furan-3-yl)phenyl)sulfonyl)ureido)-N-(4-methoxyphenyl)-3-phenylpropanamide], the EC50 under setting [1] was below 100 nM.

As to `CCN(C(=O)[C@H](Cc1ccccc1)NC(=O)NS(=O)(=O)c1cccc(-c2ccoc2)c1C)c1ccc(OC)cc1` [Example 122, (S)—N-ethyl-2-(3-((3-(furan-3-yl)-2-methylphenyl)sulfonyl)ureido)-N-(4-methoxyphenyl)-3-phenylpropanamide], under setting [1], the EC50 was 100 to 1000 nM.

In the case of `CCN(C(=O)[C@H](Cc1ccccc1)NC(=O)NS(=O)(=O)c1cc(-c2ccoc2)ccc1C)c1ccc(OC)cc1` [Example 123, (S)—N-ethyl-2-(3-((5-(furan-3-yl)-2-methylphenyl)sulfonyl)ureido)-N-(4-methoxyphenyl)-3-phenylpropanamide], the EC50 is 100 to 1000 nM under setting [1] and 660 nM under setting [2].

In the case of `CN(C(=O)[C@H](Cc1ccccc1)NC(=O)NS(=O)(=O)c1ccccc1-c1ccc(CO)cc1)c1ccc2c(c1)OCO2` [Example 124, (S)—N-(benzo[d][1,3]dioxol-5-yl)-2-(3-((4′-(hydroxymethyl)-[1,1′-biphenyl]-2-yl)sulfonyl)ureido)-N-methyl-3-phenylpropanamide], the EC50 under setting [1] lay within 1000 to 10000 nM.
